Here are results for 4 molecules from ChEMBL document CHEMBL3872214, “Synthesis and evaluation of in vivo antioxidant, in vitro antibacterial, MRSA and antifungal activity of novel substituted isatin N-(2,3,4,6-tetra-O-acetyl-β-d-glucopyranosyl)thiosemicarbazones” (Eur J Med Chem, 2016).

A short description of series [1]: Cytotoxicity against human KB cells after 3 days by MTT assay. To be noted: 72 h. Format: functional, cell-based.
Series [2] in a line: Cytotoxicity against human MCF7 cells after 3 days by MTT assay. The class given is functional, cell-based. As to conditions: MCF7, 72 h.
Series [3] can be described thus: Cytotoxicity against human SW480 cells after 3 days by MTT assay. The class given is functional, cell-based. As to conditions: SW480, 72 h.
Series [4] is described as follows: Cytotoxicity against mouse NIH/3T3 cells after 3 days by MTT assay. The class given is toxicity, NIH3T3.
Series [5] is described as follows: Cytotoxicity against mouse […] cells after 3 days by MTT assay. Format: functional, cell-based. To be noted: 72 h.
A short description of series [6]: Cytotoxicity against human HepG2 cells after 3 days by MTT assay. The class given is functional, cell-based. As to conditions: HepG2, 72 h.
Series [7] is described as follows: Cytotoxicity against human Lu1 cells after 3 days by MTT assay. Format: functional, cell-based. To be noted: Lu1, 72 h.
Series [8] concerns Staphylococcus aureus. The series is described as follows: Antibacterial activity against methicillin-resistant Staphylococcus aureus 198-2 after 18 to 20 hrs by two-fold microbroth dilution method. The class given is functional.
The test system of series [9] is Staphylococcus aureus. In words: Antibacterial activity against Staphylococcus aureus ATCC 11632 after 18 to 20 hrs by two-fold microbroth dilution method. The class given is functional.
The test system of series [10] is Bacillus subtilis. In words: Antibacterial activity against Bacillus subtilis ATCC 11774 after 18 to 20 hrs by two-fold microbroth dilution method. The class given is functional.
Series [11] relates to Escherichia coli. The series is described as follows: Antibacterial activity against Escherichia coli ATCC 25922 after 18 to 20 hrs by two-fold microbroth dilution method. Format: functional.
Series [12] concerns Candida albicans. In words: Antifungal activity against Candida albicans ATCC 7754 after 72 hrs by agar dilution method. Format: functional. To be noted: ATCC 7754, 72 h.
Series [13] relates to Pseudomonas aeruginosa. The series is described as follows: Antibacterial activity against Pseudomonas aeruginosa […] after 18 to 20 hrs by two-fold microbroth dilution method. Format: functional.
The test system of series [14] is Staphylococcus aureus. In words: Antibacterial activity against methicillin-resistant Staphylococcus aureus 198-1 after 18 to 20 hrs by two-fold microbroth dilution method. The class given is functional.
The subject of series [15] is Rattus norvegicus. In words: Antioxidant activity in CCL4-intoxicated Wistar albino rat assessed as liver cytosolic glutathione peroxidase activity per mg protein at 100 mg/kg, ip administered for 7 consecutive days after DL-alpha-tocopherol acetate treatment followed by CCL4 dosing measured after 24 hrs by H2O2 based spectrophotometric analysis (reference value: 0.28 +/- 0.01 U). Format: functional.

Series [16] deals with Klebsiella aerogenes. The series is described as follows: Antibacterial activity against Enterobacter aerogenes ATCC 13048 after 18 to 20 hrs by two-fold microbroth dilution method. Format: functional.
In series [17] the test system is Staphylococcus aureus. In words: Antibacterial activity against methicillin-resistant Staphylococcus aureus 198-3 after 18 to 20 hrs by two-fold microbroth dilution method. The class given is functional.
The test system of series [18] is Aspergillus niger. In words: Antifungal activity against Aspergillus niger 439 after 72 hrs by agar dilution method. The class given is functional. As to conditions: Aspergillus niger, 439, 72 h.
Series [19] deals with Staphylococcus epidermidis. The series is described as follows: Antibacterial activity against Staphylococcus epidermidis ATCC 12228 after 18 to 20 hrs by two-fold microbroth dilution method. The class given is functional.
In series [20] the test system is Rattus norvegicus. In words: Antioxidant activity in CCL4-intoxicated Wistar albino rat assessed as liver cytosolic catalase activity per mg protein at 100 mg/kg, ip administered for 7 consecutive days after DL-alpha-tocopherol acetate treatment followed by CCL4 dosing measured after 24 hrs by H2O2 based assay (reference value: 220.15 +/- 11.43 U). Format: functional.

The nature of series [21]: Antifungal activity against Saccharomyces cerevisiae SH20 after 72 hrs by agar dilution method. Format: functional.
For series [22], the system named is Klebsiella pneumoniae. In words: Antibacterial activity against Klebsiella pneumoniae ATCC 4352 after 18 to 20 hrs by two-fold microbroth dilution method. Format: functional.
Series [23] in a line: Antifungal activity against Fusarium oxysporum M42 after 72 hrs by agar dilution method. The class given is functional.
The test system of series [24] is Rattus norvegicus. In words: Antioxidant activity in CCL4-intoxicated Wistar albino rat assessed as liver cytosolic superoxide dismutase activity per mg protein at 100 mg/kg, ip administered for 7 consecutive days after DL-alpha-tocopherol acetate treatment followed by CCL4 dosing measured after 24 hrs by xanthine based assay (reference value: 5.27 +/- 0.22 U). The class given is functional.

Each structure is given as a SMILES string. pIC50: −log10 of the molar value. Values after ≈ are worked out from the molar mass of the structure shown.

With `Cc1c2ccncc2c(C)c2c1[nH]c1ccccc12` [ELLIPTECINE], the negative logarithm of the IC50 (pIC50) in series [1] is 6.28; in series [2], 6.28; in [3], 6.12; in series [5], 5.90; in [6], 5.71; in series [7] it was 5.86. The molecule further displayed a 50% inhibitory concentration (IC50) at 3 days in series [4] of 0.32 µM.
With `CC(=O)OC[C@H]1O[C@@H](NC(=S)N/N=C2/C(=O)Nc3c(Br)cc(Br)cc32)[C@H](OC(C)=O)[C@@H](OC(C)=O)[C@@H]1OC(C)=O`, the MIC in series [8] amounted to 0.78 µM (≈ 0.553 µg/mL); in [9], 1.56 µM (≈ 1.11 µg/mL); in series [10] it was 1.56 µM (≈ 1.11 µg/mL); in series [11] it was 50 µM (≈ 35.4 µg/mL); in series [12], 6.25 µM (≈ 4.43 µg/mL); in series [13] it was 50 µM (≈ 35.4 µg/mL). Moreover, the minimum inhibitory concentration (MIC) came to 0.78 µM (≈ 0.553 µg/mL) in series [14]; 50 µM (≈ 35.4 µg/mL) in series [16]; 0.78 µM (≈ 0.553 µg/mL) in series [17]; 3.12 µM (≈ 2.21 µg/mL) in series [18]; 1.56 µM (≈ 1.11 µg/mL) in [19]; 6.25 µM (≈ 4.43 µg/mL) in series [21]. The figures for the minimum inhibitory concentration (MIC) in series [22] and in series [23] were 50 µM (≈ 35.4 µg/mL) and 12.5 µM (≈ 8.85 µg/mL), respectively. Also, the Activity in series [15] was 0.31 U; in series [20] it was 397.53 U; in [24] it was 10.89 U. Also, the pIC50 in series [1] was 4.89; in series [2], 5.56; in series [3] it was 5.32; in series [5], 4.73; in series [6], 5.08; in [7] it was 5.26. Moreover, the IC50 at 3 days in series [4] amounted to 1.53 µM.
Consider `CC(=O)OC[C@H]1O[C@@H](NC(=S)N/N=C2/C(=O)N(CC(C)C)c3ccccc32)[C@H](OC(C)=O)[C@@H](OC(C)=O)[C@@H]1OC(C)=O`, for which the MIC turned out to be 100 µM (≈ 60.7 µg/mL) in [8]; 100 µM (≈ 60.7 µg/mL) in series [9]; 100 µM (≈ 60.7 µg/mL) in [10]; 12.5 µM (≈ 7.58 µg/mL) in series [11]; 100 µM (≈ 60.7 µg/mL) in series [12]; 12.5 µM (≈ 7.58 µg/mL) in series [13]. Further, the MIC turned out to be 100 µM (≈ 60.7 µg/mL) in series [14]; 12.5 µM (≈ 7.58 µg/mL) in series [16]; 100 µM (≈ 60.7 µg/mL) in series [17]; 100 µM (≈ 60.7 µg/mL) in series [18]; 100 µM (≈ 60.7 µg/mL) in series [19]; 100 µM (≈ 60.7 µg/mL) in series [21]. For the same molecule, the MIC in series [22] is 12.5 µM (≈ 7.58 µg/mL); in series [23], 100 µM (≈ 60.7 µg/mL). The Activity in series [15] was 0.91 U; in series [20], 375.45 U; in [24], 9.88 U.
Turning to `CC(=O)OC[C@H]1O[C@@H](NC(=S)N/N=C2/C(=O)Nc3c(C)cccc32)[C@H](OC(C)=O)[C@@H](OC(C)=O)[C@@H]1OC(C)=O`, the minimal inhibitory concentration (MIC) came to 12.5 µM (≈ 7.06 µg/mL) in series [8]; 12.5 µM (≈ 7.06 µg/mL) in series [9]; 25 µM (≈ 14.1 µg/mL) in series [10]; 25 µM (≈ 14.1 µg/mL) in [11]; 100 µM (≈ 56.5 µg/mL) in series [12]; 25 µM (≈ 14.1 µg/mL) in series [13]. In addition, the MIC in series [14] came out at 12.5 µM (≈ 7.06 µg/mL); in series [16], 25 µM (≈ 14.1 µg/mL); in [17], 12.5 µM (≈ 7.06 µg/mL); in [18], 100 µM (≈ 56.5 µg/mL); in series [19], 12.5 µM (≈ 7.06 µg/mL); in series [21], 25 µM (≈ 14.1 µg/mL). The minimum inhibitory concentration (MIC) in [22] and in [23] was 25 µM (≈ 14.1 µg/mL) throughout. Besides, the Activity in series [15] was found to be 1.69 U; in series [20], 250.63 U; in series [24] it was 4.6 U.
